Test results from PubChem BioAssay (NCI).
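All cell lines were grown in 96-well plates and treated with compound for 48 hours. GI50 is the concentration that inhibits growth by half. TGI denotes the concentration required for complete inhibition of growth.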

Tests used:
Test in all cases: NCI-60 cell line screen, 48 h
NCI-H23 lung = test system: NCI-H23 lung
LOX IMVI melanoma = test system: LOX IMVI melanoma
MCF7 breast = test system: MCF7 breast
NCI/ADR-RES ovarian = test system: NCI/ADR-RES ovarian
SNB-75 CNS = test system: SNB-75 CNS
HCT-116 colon = test system: HCT-116 colon
M14 melanoma = test system: M14 melanoma
TK-10 renal = test system: TK-10 renal
HOP-92 NSCLC = test system: HOP-92 NSCLC
HOP-62 NSCLC = test system: HOP-62 NSCLC
OVCAR-3 ovarian = test system: OVCAR-3 ovarian
SNB-19 CNS = test system: SNB-19 CNS
SR leukemia = test system: SR leukemia
T-47D breast = test system: T-47D breast
HS 578T breast = test system: HS 578T breast
786-0 renal = test system: 786-0 renal
IGROV1 ovarian = test system: IGROV1 ovarian
NCI-H460 lung = test system: NCI-H460 lung
SN12C renal = test system: SN12C renal
HT29 colon = test system: HT29 colon
MDA-MB-435 = test system: MDA-MB-435
SK-MEL-5 melanoma = test system: SK-MEL-5 melanoma
A549 NSCLC = test system: A549 NSCLC
OVCAR-5 ovarian = test system: OVCAR-5 ovarian
RPMI-8226 leukemia = test system: RPMI-8226 leukemia
OVCAR-4 ovarian = test system: OVCAR-4 ovarian
KM12 colon = test system: KM12 colon
NCI-H226 lung = test system: NCI-H226 lung
A498 renal = test system: A498 renal
HL-60(TB) leukemia = test system: HL-60(TB) leukemia
ACHN renal = test system: ACHN renal
RXF 393 renal = test system: RXF 393 renal
K-562 leukemia = test system: K-562 leukemia
SF-268 CNS = test system: SF-268 CNS
SF-295 CNS = test system: SF-295 CNS
HCC-2998 colon = test system: HCC-2998 colon
BT-549 breast = test system: BT-549 breast
MOLT-4 leukemia = test system: MOLT-4 leukemia
U251 CNS = test system: U251 CNS
CCRF-CEM leukemia = test system: CCRF-CEM leukemia
UO-31 renal = test system: UO-31 renal
UACC-62 melanoma = test system: UACC-62 melanoma
CAKI-1 renal = test system: CAKI-1 renal
SK-OV-3 ovarian = test system: SK-OV-3 ovarian
PC-3 prostate = test system: PC-3 prostate
SK-MEL-2 melanoma = test system: SK-MEL-2 melanoma
DU-145 prostate = test system: DU-145 prostate
OVCAR-8 ovarian = test system: OVCAR-8 ovarian
HCT-15 colon = test system: HCT-15 colon
MALME-3M melanoma = test system: MALME-3M melanoma
SF-539 CNS = test system: SF-539 CNS
UACC-257 melanoma = test system: UACC-257 melanoma
EKVX NSCLC = test system: EKVX NSCLC
MDA-MB-231 breast = test system: MDA-MB-231 breast
COLO 205 colon = test system: COLO 205 colon
SK-MEL-28 melanoma = test system: SK-MEL-28 melanoma
SW-620 colon = test system: SW-620 colon
NCI-H522 lung = test system: NCI-H522 lung

## Clc1ccc(/C=C2\CCCC3C2=Nc2ccccc2NC3c2ccc(Cl)cc2)cc1 (stereo unspecified)
NCI-H23 lung
  GI50: 3.43 µM
  TGI: 15.7 µM
LOX IMVI melanoma
  GI50: 1.74 µM
  TGI: 3.18 µM
MCF7 breast
  GI50: 2.92 µM
  TGI: > 34 µM
NCI/ADR-RES ovarian
  GI50: 4.66 µM
  TGI: 52.3 µM
SNB-75 CNS
  GI50: 12.3 µM
  TGI: 57.5 µM
HCT-116 colon
  GI50: 1.59 µM
  TGI: 3.02 µM
M14 melanoma
  GI50: 2.07 µM
  TGI: 5.19 µM
TK-10 renal
  GI50: 11 µM
  TGI: > 58.5 µM
HOP-92 NSCLC
  GI50: 7.99 µM
  TGI: 37.9 µM
HOP-62 NSCLC
  GI50: 3.86 µM
  TGI: 22.1 µM
OVCAR-3 ovarian
  GI50: 3.13 µM
  TGI: 9.12 µM
SNB-19 CNS
  GI50: 7.01 µM
  TGI: > 100 µM
SR leukemia
  GI50: 2.6 µM
  TGI: 6.64 µM
T-47D breast
  GI50: 6.27 µM
  TGI: > 87.9 µM
HS 578T breast
  GI50: 4.04 µM
  TGI: > 27.7 µM
786-0 renal
  GI50: 3.48 µM
  TGI: 16.2 µM
IGROV1 ovarian
  GI50: 3.3 µM
  TGI: 10.2 µM
NCI-H460 lung
  GI50: 4.47 µM
  TGI: 16.4 µM
SN12C renal
  GI50: 6.81 µM
  TGI: 34.2 µM
HT29 colon
  GI50: 2.79 µM
  TGI: 7.95 µM
MDA-MB-435
  GI50: 2.87 µM
  TGI: > 27.6 µM
SK-MEL-5 melanoma
  GI50: 2.91 µM
  TGI: 7.19 µM
A549 NSCLC
  GI50: 2.88 µM
  TGI: 9.11 µM
OVCAR-5 ovarian
  GI50: 8.63 µM
  TGI: 22.3 µM
RPMI-8226 leukemia
  GI50: 1.85 µM
  TGI: 5.13 µM
OVCAR-4 ovarian
  GI50: 3.77 µM
  TGI: > 52.7 µM
KM12 colon
  GI50: 2.02 µM
  TGI: 3.99 µM
NCI-H226 lung
  GI50: 1.91 µM
  TGI: 4.19 µM
A498 renal
  GI50: 2.15 µM
  TGI: 5.79 µM
HL-60(TB) leukemia
  GI50: 4.85 µM
  TGI: 33 µM
ACHN renal
  GI50: 4.42 µM
  TGI: > 25.4 µM
RXF 393 renal
  GI50: 1.81 µM
  TGI: 3.47 µM
K-562 leukemia
  GI50: 3.91 µM
  TGI: 27.8 µM
SF-268 CNS
  GI50: 4.05 µM
  TGI: > 77.7 µM
SF-295 CNS
  GI50: 2.71 µM
  TGI: 8.46 µM
HCC-2998 colon
  GI50: 1.92 µM
  TGI: 3.55 µM
BT-549 breast
  GI50: 2.24 µM
  TGI: 6.81 µM
MOLT-4 leukemia
  GI50: 4.52 µM
  TGI: 30.4 µM
U251 CNS
  GI50: 2.05 µM
  TGI: 4.71 µM
CCRF-CEM leukemia
  GI50: 3.18 µM
  TGI: > 35.9 µM
UO-31 renal
  GI50: 3.15 µM
  TGI: 12.5 µM
UACC-62 melanoma
  GI50: 6.7 µM
  TGI: 25.4 µM
CAKI-1 renal
  GI50: 3.95 µM
  TGI: 69.9 µM
SK-OV-3 ovarian
  GI50: 7.49 µM
  TGI: > 100 µM
PC-3 prostate
  GI50: 4.45 µM
  TGI: > 41.5 µM
SK-MEL-2 melanoma
  GI50: 31.3 µM
  TGI: > 64.8 µM
DU-145 prostate
  GI50: 4.39 µM
  TGI: 23.9 µM
OVCAR-8 ovarian
  GI50: 2.75 µM
  TGI: 8.31 µM
HCT-15 colon
  GI50: 2.59 µM
  TGI: 7.47 µM
MALME-3M melanoma
  GI50: 16.8 µM
  TGI: 49.2 µM
SF-539 CNS
  GI50: 4.75 µM
  TGI: 47.4 µM
UACC-257 melanoma
  GI50: 2.14 µM
  TGI: 5.88 µM
EKVX NSCLC
  GI50: 4.07 µM
  TGI: 52.5 µM
MDA-MB-231 breast
  GI50: 6.99 µM
  TGI: 41.7 µM
COLO 205 colon
  GI50: 3.11 µM
  TGI: 8.2 µM
SK-MEL-28 melanoma
  GI50: 7.15 µM
  TGI: 28.4 µM
SW-620 colon
  GI50: 2.96 µM
  TGI: 10.6 µM
NCI-H522 lung
  GI50: 11.6 µM
  TGI: 28.5 µM
